Peptide text beside a SMILES is read from it. * marks the point of attachment. Acridine9carbonyl = O=C(c1c2ccccc2nc2ccccc12)*
Tested on: Escherichia coli
Experiment: Evaluated for the ribosomal RNA cleavage using Gel-permeation analysis as difference in retention time
Format: functional

Structure (SMILES)	Difference in retention time
NCCCC[C@H](NC(=O)[C@H](Cc1c[nH]cn1)NC(=O)[C@@H]1CCCN1C(=O)[C@@H](N)Cc1c[nH]cn1)C(N)=O (H-HPHK-NH2)	0.2 min
N[C@@H](Cc1c[nH]cn1)C(=O)N1CCC[C@H]1C(=O)N[C@@H](Cc1c[nH]cn1)C(=O)N[C@@H](CCCCNC(=O)c1c2ccccc2nc2ccccc12)C(=O)O (H-HPHK(Acridine9carbonyl)-OH)	3.4 min
Cc1ccc2nc3ccccc3c(C=O)c2c1	0.3 min

From ChEMBL document CHEMBL1126212, “A peptide-acridine conjugate with ribonucleolytic activity” (1992)
